From patent publication US11613538B2, “Method of inhibiting or reducing a viral infection” (PTC Therapeutics, Inc., priority 2009, dated 2023)

System: hypoxia-induced VEGF production in HeLa cells
Assay: cells
Assay type: cell-based, human
Conditions: Homo sapiens, HeLa

Structure (SMILES) | EC50
CC#CCOC(=O)N1CCc2c([nH]c3ccc(Cl)cc23)C1c1cnc(OC)nc1 (stereo not shown) [Compound 1692] | 8 to 40 nM
CC(C)COC(=O)N1CCc2c([nH]c3ccc(Cl)cc23)C1c1ccc(OCC2OCCO2)cc1 (stereo not shown) [Compound 1037] | < 8 nM
O=C(COc1ccc(C2c3[nH]c4ccc(Cl)cc4c3CCN2C(=O)Oc2ccc(F)cc2)cc1)NCCO (stereo not shown) [Compound 1063] | 8 to 40 nM
CCOC(=O)N1CCc2c([nH]c3ccc(Cl)cc23)C1c1ccc(OCC(O)CNC(=O)C2CC2)cc1 (stereo not shown) [Compound 1466] | 8 to 40 nM
CC(C)(C)COC(=O)N1CCc2c([nH]c3ccc(Cl)cc23)C1c1ccc(OCC2OCCO2)cc1 (stereo not shown) [Compound 1038] | < 8 nM
C=CCOc1ccc([C@H]2c3[nH]c4ccc(Cl)cc4c3CCN2C(=O)OCC2CC2)cc1 [Compound 1365] | < 8 nM
CCCOC(=O)N1CCc2c([nH]c3ccc(Cl)cc23)C1c1ccc(OCC[C@H]2COC(C)(C)O2)cc1 (stereo partly shown) [Compound 1164] | < 8 nM
COc1ccc(C2c3[nH]c4cccc(Cl)c4c3CCN2C(=O)OCCF)cc1 (stereo not shown) [Compound 1529] | 200 to 1000 nM
COc1ccc(C2c3[nH]c4ccc(Cl)cc4c3CCN2C(=O)C(=O)Nc2ccc(F)cc2)cc1 (stereo not shown) [Compound 1713] | 40 to 200 nM
CCOC(=O)N1CCc2c([nH]c3ccc(Cl)cc23)[C@@H]1c1ccc(OCC2(CO)COCOC2)cc1 [Compound 1359] | 8 to 40 nM
COc1ccc(C2c3[nH]c4ccc([S+](C)[O-])cc4c3CCN2C(=O)Oc2ccc(Cl)cc2)cc1 (stereo not shown) [Compound 1489] | > 1000 nM
CC#CCOC(=O)N1CCc2c([nH]c3ccc(Cl)cc23)C1c1ccc(OCC(O)CO)cc1 (stereo not shown) [Compound 1018] | 8 to 40 nM
CC#CCOC(=O)N1CCc2c([nH]c3ccc(Cl)cc23)[C@@H]1c1ccc(OCCCCl)cc1 [Compound 1294] | < 8 nM
CCOC(=O)N1CCc2c([nH]c3ccc(Cl)cc23)C1c1ccc(OC)cc1F (stereo not shown) [Compound 1268] | < 8 nM
CC1(COC(=O)N2CCc3c([nH]c4ccc(Cl)cc34)[C@@H]2c2ccc(OC[C@@H](O)CO)cc2)CC1 [Compound 1381] | < 8 nM
OCC(CO)COc1ccc(C2c3[nH]c4ccc(Cl)cc4c3CCN2c2ncccn2)cc1 (stereo not shown) [Compound 1243] | 8 to 40 nM
CC#CCOC(=O)N1CCc2c([nH]c3ccc(Cl)cc23)C1c1ccc(OCCn2cc(C(N)=O)c(N)n2)cc1 (stereo not shown) [Compound 1404] | 40 to 200 nM
COc1ccc(C2c3[nH]c4ccc(S(C)(=O)=O)cc4c3CCN2C(=O)Oc2ccc(Cl)cc2)cc1 (stereo not shown) [Compound 1497] | > 1000 nM
CCOC(=O)N1CCc2c([nH]c3ccc(Br)cc23)C1c1ccc(OCC(O)CO)cc1 (stereo not shown) [Compound 1340] | 8 to 40 nM
CCOC(=O)N1CCc2c([nH]c3c(C)cccc23)C1c1ccc(OC)cc1 (stereo not shown) [Compound 1428] | > 1000 nM
O=C(Oc1ccc(Cl)cc1)N1CCc2c([nH]c3cc(F)ccc23)C1c1ccc(OC(F)F)cc1 (stereo not shown) [Compound 1463] | 40 to 200 nM
O=C(Oc1ccc(Cl)cc1)N1CCc2c([nH]c3ccc(Cl)cc23)[C@@H]1c1ccc(OCC(CO)CO)cc1 [Compound 1209] | < 8 nM
COc1ccc([C@H]2C3Nc4ccc(Cl)cc4C3CCN2C(=O)OC2CCCC2)cc1 (stereo partly shown) [Compound 1298] | < 8 nM
CC(C)OC(=O)N1CCc2c([nH]c3ccc(Cl)cc23)C1c1ccc(OCCCN2CCOCC2)cc1 (stereo not shown) [Compound 1102] | < 8 nM
CCOC(=O)N1CCc2c([nH]c3ccc(Br)cc23)C1c1ccc(OCC(CC)(CO)CO)cc1 (stereo not shown) [Compound 1354] | < 8 nM

Structure (SMILES) | EC50
CC(C)(C)OC(=O)N1CCc2c([nH]c3ccc(Cl)cc23)[C@@H]1c1ccc(OCCCn2nccn2)cc1 [Compound 1240] | < 8 nM
COc1cc(C2c3[nH]c4ccc(Cl)cc4c3CCN2C(=O)Oc2ccc(Cl)cc2)ccc1OCCN1CCOCC1 (stereo not shown) [Compound 1092] | 8 to 40 nM
CCOC(=O)N1CCc2c([nH]c3ccc(Cl)cc23)[C@@H]1c1ccc(OC2COC2)cc1 [Compound 1699] | < 8 nM
CCOC(=O)N1CCc2c([nH]c3ccc(Cl)cc23)C1c1ccc(OCC(O)CNC(=O)c2cccnc2)cc1 (stereo not shown) [Compound 1468] | < 8 nM
CCN(CC)C[C@@H](O)CCOc1ccc([C@H]2c3[nH]c4ccc(Cl)cc4c3CCN2c2ncccn2)cc1 [Compound 1305] | 8 to 40 nM
CCOC(=O)N1CCc2c([nH]c3ccc(S(C)(=O)=O)cc23)C1c1ccc(OC)cc1 (stereo not shown) [Compound 1496] | > 1000 nM
COc1ccc(C2c3[nH]c4ccc(Cl)cc4c3CCN2C(=O)C(=O)Nc2ccc(C#N)cc2)cc1 (stereo not shown) [Compound 1716] | 200 to 1000 nM
O=C(OCC1CC1)N1CCc2c([nH]c3ccc(Cl)cc23)[C@@H]1c1ccc(OCC[C@H](O)CO)cc1 [Compound 1373] | < 8 nM
CCOC(=O)N1CCc2c([nH]c3ccc(Cl)cc23)[C@@H]1c1ccc(OCCC(O)Cn2cncn2)cc1 (stereo partly shown) [Compound 1287] | 8 to 40 nM
COc1ccc(OC(=O)N2CCc3c([nH]c4cc(F)ccc34)C2c2ccc(OC)cc2)cc1 (stereo not shown) [Compound 1460] | > 1000 nM
COC(=O)N1CCc2c([nH]c3ccc(Cl)cc23)C1c1ccc(OCCCN2CCN(C)CC2)cc1 (stereo not shown) [Compound 1101] | 40 to 200 nM
Cc1ccc(OC(=O)N2CCC3c4cc(Cl)ccc4NC3[C@@H]2c2ccc(OCCC(O)CN3CCOCC3)cc2)cc1 (stereo partly shown) [Compound 1302] | 40 to 200 nM
CC#CCOC(=O)N1CCc2c([nH]c3ccc(Cl)cc23)[C@@H]1c1ccc(OC2CCN(c3ncccn3)CC2)cc1 [Compound 1678] | < 8 nM
COc1ccc(C2c3[nH]c4ccc(Cl)cc4c3CCN2C(=O)C(=O)Nc2ccc(C)cc2)cc1 (stereo not shown) [Compound 1712] | 8 to 40 nM
CCCN(CCC)CCCOc1ccc([C@H]2c3[nH]c4ccc(Cl)cc4c3CCN2C(=O)OCC)cc1 [Compound 1233] | 8 to 40 nM
C=C(C)OC(=O)N1CCc2c([nH]c3ccc(Cl)cc23)C1c1ccc(OCC2OCCO2)cc1 (stereo not shown) [Compound 1046] | 8 to 40 nM
CCOC(=O)N1CCc2c([nH]c3ccc(C#N)cc23)C1c1ccc(OC)cc1 (stereo not shown) [Compound 1512] | 200 to 1000 nM
O=C(OCC1CCC1)N1CCc2c([nH]c3ccc(Cl)cc23)[C@@H]1c1ccc(OCCCO)cc1 [Compound 1368] | < 8 nM
CCOC(=O)NCC(O)COc1ccc(C2c3[nH]c4ccc(Cl)cc4c3CCN2C(=O)OCC)cc1 (stereo not shown) [Compound 1470] | < 8 nM
CCOC(=O)N1CCc2c([nH]c3ccc(Cl)cc23)C1c1ccc(OCC(N)=O)cc1 (stereo not shown) [Compound 1210] | 8 to 40 nM
CC#CCOC(=O)N1CCc2c([nH]c3ccc(Cl)cc23)[C@@H]1c1ccc(OC2CCNCC2)cc1 [Compound 1683] | 8 to 40 nM
CCOC(=O)N1CCc2c([nH]c3ccc(Cl)cc23)[C@@H]1c1ccc(Oc2nc(C)cnc2C)cc1 [Compound 1653] | < 8 nM
O=C(OCC1CCCC1)N1CCc2c([nH]c3ccc(Cl)cc23)[C@@H]1c1ccc(OCCCO)cc1 [Compound 1630] | < 8 nM
CC#CCOC(=O)N1CCc2c([nH]c3ccc(Cl)cc23)[C@@H]1c1ccc(OC2CCOCC2)cc1 [Compound 1603] | < 8 nM
COCCN(CCCOc1cccc(C2c3[nH]c4ccc(Cl)cc4c3CCN2C(=O)Oc2ccc(F)cc2)c1)CCOC (stereo not shown) [Compound 1119] | 40 to 200 nM

Structure (SMILES) | EC50
O=C(OCC1CCC1)N1CCc2c([nH]c3ccc(Cl)cc23)[C@@H]1c1ccc(O)cc1 [Compound 1370] | 8 to 40 nM
O=C(Oc1ccc(Cl)cc1)N1CCc2c([nH]c3ccc(Cl)cc23)C1c1ccc(OCC2OCCO2)cc1 (stereo not shown) [Compound 1053] | < 8 nM
COc1ccc(C2NCCc3c2[nH]c2ccc(SC)cc32)cc1 (stereo not shown) [Compound 1487] | > 1000 nM
[H]/N=C(\N)NCCOc1ccc(C2c3[nH]c4ccc(Cl)cc4c3CCN2C(=O)OCCOC)cc1 (stereo not shown) [Compound 1410] | > 1000 nM
C#CCOC(=O)N1CCc2c([nH]c3ccc(Cl)cc23)C1c1ccc(OCC2OCCO2)cc1 (stereo not shown) [Compound 1048] | < 8 nM
CC#CCOC(=O)N1CCc2c([nH]c3ccc(Cl)cc23)C1c1ccc(OC2CCOCC2)cc1 (stereo not shown) [Compound 1576] | < 8 nM
O=C(OC1CCCC1)N1CCc2c([nH]c3ccc(Cl)cc23)[C@@H]1c1ccc(O)cc1 [Compound 1286] | 40 to 200 nM
CCCOC(=O)C(=O)N1CCc2c([nH]c3ccc(Cl)cc23)C1c1ccc(OC)cc1 (stereo not shown) [Compound 1339] | 8 to 40 nM
CC#CCOC(=O)N1CCc2c([nH]c3ccc(Cl)cc23)[C@@H]1c1ccc(OC2CCN(C(=O)OCCN3CCOCC3)CC2)cc1 [Compound 1680] | < 8 nM
CCOC(=O)N1CCc2c([nH]c3ccc(Cl)cc23)[C@@H]1c1ccc(OCCC(O)CNC(C)=O)cc1 (stereo partly shown) [Compound 1270] | 8 to 40 nM
C=CCOC(=O)N1CCc2c([nH]c3ccc(Cl)cc23)C1c1ccc(OCC2OCCO2)cc1 (stereo not shown) [Compound 1044] | < 8 nM
CCOC(=O)N1CCc2c([nH]c3ccc(Cl)cc23)C1c1ccc(OCCNc2ncncn2)cc1 (stereo not shown) [Compound 1433] | < 8 nM
CCN(CC)C[C@H](O)COc1ccc([C@H]2c3[nH]c4ccc(Cl)cc4c3CCN2c2ncccn2)cc1 [Compound 1309] | 8 to 40 nM
COc1ncc(C2c3[nH]c4ccc(Cl)cc4c3CCN2C(=O)Oc2ccc(F)cc2)cn1 (stereo not shown) [Compound 1690] | 8 to 40 nM
O=C(C1CC1)N1CCc2c([nH]c3ccc(Cl)cc23)C1c1ccc(OCCCn2cncn2)cc1 (stereo not shown) [Compound 1142] | 8 to 40 nM
COc1ccc(C2c3[nH]c4ccc(Cl)cc4c3CCN2C(=O)OCCn2ccnn2)cc1 (stereo not shown) [Compound 1157] | 200 to 1000 nM
CCC(CO)(CO)COc1ccc(C2c3[nH]c4ccc(Br)cc4c3CCN2C(=O)OCC(C)C)cc1 (stereo not shown) [Compound 1356] | < 8 nM
COc1ccc(OC(=O)N2CCc3c([nH]c4ccc(Cl)cc34)C2c2ccc(OCC(=O)NCCN3CCOCC3)cc2)cc1 (stereo not shown) [Compound 1026] | 8 to 40 nM
O=C(OC1CCCC1)N1CCc2c([nH]c3ccc(Cl)cc23)[C@@H]1c1ccc(OCC[C@H](O)CO)cc1 [Compound 1320] | < 8 nM
COc1ccc(C2c3[nH]c4cccc(Br)c4c3CCN2C(=O)Oc2ccc(Br)cc2)cc1 (stereo not shown) [Compound 1526] | 40 to 200 nM
O=C(OC1CCCC1)N1CCc2c([nH]c3ccc(Cl)cc23)[C@@H]1c1ccc(OCCCO)cc1 [Compound 1285] | < 8 nM
O=C(c1ccc(F)cc1)N1CCc2c([nH]c3ccc(Cl)cc23)C1c1ccc(OCCCn2cncn2)cc1 (stereo not shown) [Compound 1138] | 8 to 40 nM
O=C(OCc1ccccc1)N1CCc2c([nH]c3ccc(Cl)cc23)C1c1ccc(OCCCn2ccnn2)cc1 (stereo not shown) [Compound 1107] | < 8 nM
